This data set concerns CCRIS mutagenicity, Ames/micronucleus/aberration tests. The data set is described as follows: CCRIS mutagenicity studies.
Where [1] appears, read: Test System: AMES SALMONELLA TYPHIMURIUM, Strain/Indicator: TA98, Metabolic Activation: NONE, Method: PREINCUBATION
Where [2] appears, read: Test System: AMES SALMONELLA TYPHIMURIUM, Strain/Indicator: TA100, Metabolic Activation: NONE, Method: PREINCUBATION
Where [3] appears, read: Test System: AMES SALMONELLA TYPHIMURIUM, Strain/Indicator: TA1535, Metabolic Activation: NONE, Method: PREINCUBATION
Where [4] appears, read: Test System: AMES SALMONELLA TYPHIMURIUM, Strain/Indicator: TA1537, Metabolic Activation: NONE, Method: PREINCUBATION
The mark [5] stands for this setting: Test System: AMES SALMONELLA TYPHIMURIUM, Strain/Indicator: TA98, Metabolic Activation: NONE, Method: STANDARD PLATE.
[6] abbreviates: Test System: AMES SALMONELLA TYPHIMURIUM, Strain/Indicator: TA100, Metabolic Activation: NONE, Method: STANDARD PLATE.

Molecules are shown by their SMILES. Activity calls are given as the source filed them. How the calls were made is not given here.

As for `O=c1nc(O)n(Cl)c(=O)n1Cl`, the mutagenic call by setting is: (Test System: AMES SALMONELLA TYPHIMURIUM, Strain/Indicator: TA98, Metabolic Activation: HAMSTER, LIVER, S-9, AROCLOR 1254 (10%), Method: PREINCUBATION) “inactive; negative”; under setting [1], “inactive; negative”; (Test System: AMES SALMONELLA TYPHIMURIUM, Strain/Indicator: TA98, Metabolic Activation: RAT, LIVER, S-9, AROCLOR 1254 (10%), Method: PREINCUBATION) “inactive; negative”; (Test System: AMES SALMONELLA TYPHIMURIUM, Strain/Indicator: TA100, Metabolic Activation: HAMSTER, LIVER, S-9, AROCLOR 1254 (10%), Method: PREINCUBATION) “inactive; negative”; under setting [2], “inactive; negative”; (Test System: AMES SALMONELLA TYPHIMURIUM, Strain/Indicator: TA100, Metabolic Activation: RAT, LIVER, S-9, AROCLOR 1254 (10%), Method: PREINCUBATION) “inactive; negative”. The mutagenic call was “inactive; negative” (Test System: AMES SALMONELLA TYPHIMURIUM, Strain/Indicator: TA1535, Metabolic Activation: HAMSTER, LIVER, S-9, AROCLOR 1254 (10%), Method: PREINCUBATION); “inactive; negative” under setting [3]; “inactive; negative” (Test System: AMES SALMONELLA TYPHIMURIUM, Strain/Indicator: TA1535, Metabolic Activation: RAT, LIVER, S-9, AROCLOR 1254 (10%), Method: PREINCUBATION); “inactive; negative” (Test System: AMES SALMONELLA TYPHIMURIUM, Strain/Indicator: TA1537, Metabolic Activation: HAMSTER, LIVER, S-9, AROCLOR 1254 (10%), Method: PREINCUBATION); “inactive; negative” under setting [4]; “inactive; negative” (Test System: AMES SALMONELLA TYPHIMURIUM, Strain/Indicator: TA1537, Metabolic Activation: RAT, LIVER, S-9, AROCLOR 1254 (10%), Method: PREINCUBATION).

For `Nc1ccc([As](=O)(O)O)cc1`, the mutagenic call reads like this: (Test System: AMES SALMONELLA TYPHIMURIUM, Strain/Indicator: TA97, Metabolic Activation: HAMSTER, LIVER, S-9, AROCLOR 1254 (10 OR 30%), Method: PREINCUBATION) “inactive; negative”; (Test System: AMES SALMONELLA TYPHIMURIUM, Strain/Indicator: TA97, Metabolic Activation: NONE, Method: PREINCUBATION) “inactive; negative”; (Test System: AMES SALMONELLA TYPHIMURIUM, Strain/Indicator: TA97, Metabolic Activation: RAT, LIVER, S-9, AROCLOR 1254 (10 OR 30%), Method: PREINCUBATION) “inactive; negative”; (Test System: AMES SALMONELLA TYPHIMURIUM, Strain/Indicator: TA98, Metabolic Activation: HAMSTER, LIVER, S-9, AROCLOR 1254 (10 OR 30%), Method: PREINCUBATION) “inactive; negative”; under setting [1], “inactive; negative”; (Test System: AMES SALMONELLA TYPHIMURIUM, Strain/Indicator: TA98, Metabolic Activation: RAT, LIVER, S-9, AROCLOR 1254 (10 OR 30%), Method: PREINCUBATION) “inactive; negative”. The mutagenic call (Test System: AMES SALMONELLA TYPHIMURIUM, Strain/Indicator: TA100, Metabolic Activation: HAMSTER, LIVER, S-9, AROCLOR 1254 (10 OR 30%), Method: PREINCUBATION) is “inactive; negative”; the mutagenic call under setting [2] is “inactive; negative”; the mutagenic call (Test System: AMES SALMONELLA TYPHIMURIUM, Strain/Indicator: TA100, Metabolic Activation: RAT, LIVER, S-9, AROCLOR 1254 (10 OR 30%), Method: PREINCUBATION) is “inactive; negative”; the mutagenic call (Test System: AMES SALMONELLA TYPHIMURIUM, Strain/Indicator: TA1535, Metabolic Activation: HAMSTER, LIVER, S-9, AROCLOR 1254 (10 OR 30%), Method: PREINCUBATION) is “inactive; negative”; the mutagenic call under setting [3] was “inactive; negative”; the mutagenic call (Test System: AMES SALMONELLA TYPHIMURIUM, Strain/Indicator: TA1535, Metabolic Activation: RAT, LIVER, S-9, AROCLOR 1254 (10 OR 30%), Method: PREINCUBATION) was “inactive; negative”.

On to `N=C(N)c1ccc2c(N)c(C(=N)N)[nH]c2c1`, for which the mutagenic call under setting [5] is “inactive; negative”; the mutagenic call (Test System: AMES SALMONELLA TYPHIMURIUM, Strain/Indicator: TA98, Metabolic Activation: RAT, LIVER, S-9, PHENOBARBITAL, Method: STANDARD PLATE) is “inactive; negative”; the mutagenic call under setting [6] is “inactive; negative”; the mutagenic call (Test System: AMES SALMONELLA TYPHIMURIUM, Strain/Indicator: TA100, Metabolic Activation: RAT, LIVER, S-9, PHENOBARBITAL, Method: STANDARD PLATE) was “inactive; negative”.

Turning to `Nc1ncnc2c1ncn2/C=C/C=O`, for the setting “Test System: AMES SALMONELLA TYPHIMURIUM, Strain/Indicator: HISD3052, Metabolic Activation: NONE, Method: STANDARD PLATE”, the mutagenic call was “active; positive”.

For `COP(=O)(NC(C)=O)SC` (configuration not stated), the mutagenic call is “inactive; negative” under setting [5]; “inactive; negative” under setting [6]; “inactive; negative” (Test System: AMES SALMONELLA TYPHIMURIUM, Strain/Indicator: TA1535, Metabolic Activation: NONE, Method: STANDARD PLATE); “active; positive; dose-dependent increase” (Test System: Mouse Lymphoma, Strain/Indicator: L5178Y (TK+/TK-), Metabolic Activation: None, Method: Suspension/Plate); “active; positive; dose-dependent increase” (Test System: Mouse Lymphoma, Strain/Indicator: L5178Y (TK+/TK-), Metabolic Activation: Rat, liver S-9, Method: Suspension/Plate).

For the molecule `CCN1CCNC(=O)C1=O`, the mutagenic call is, setting by setting: under setting [1], “inactive; negative”; (Test System: AMES SALMONELLA TYPHIMURIUM, Strain/Indicator: TA98, Metabolic Activation: RAT LIVER S-9, PHENOBARBITAL AND BETA-NAPHTHOFLAVONE, Method: PREINCUBATION) “inactive; negative”; under setting [2], “inactive; negative”; (Test System: AMES SALMONELLA TYPHIMURIUM, Strain/Indicator: TA100, Metabolic Activation: RAT LIVER S-9, PHENOBARBITAL AND BETA-NAPHTHOFLAVONE, Method: PREINCUBATION) “inactive; negative”; under setting [3], “inactive; negative”; (Test System: AMES SALMONELLA TYPHIMURIUM, Strain/Indicator: TA1535, Metabolic Activation: RAT LIVER S-9, PHENOBARBITAL AND BETA-NAPHTHOFLAVONE, Method: PREINCUBATION) “inactive; negative”. The mutagenic call under setting [4] was “inactive; negative”; the mutagenic call (Test System: AMES SALMONELLA TYPHIMURIUM, Strain/Indicator: TA1537, Metabolic Activation: RAT LIVER S-9, PHENOBARBITAL AND BETA-NAPHTHOFLAVONE, Method: PREINCUBATION) was “inactive; negative”; the mutagenic call (Test System: AMES SALMONELLA TYPHIMURIUM, Strain/Indicator: TA1538, Metabolic Activation: NONE, Method: PREINCUBATION) was “inactive; negative”; the mutagenic call (Test System: AMES SALMONELLA TYPHIMURIUM, Strain/Indicator: TA1538, Metabolic Activation: RAT LIVER S-9, PHENOBARBITAL AND BETA-NAPHTHOFLAVONE, Method: PREINCUBATION) is “inactive; negative”; the mutagenic call (Test System: E.COLI, Strain/Indicator: WP2UVRA, Metabolic Activation: NONE, Method: PREINCUBATION) was “inactive; negative”; the mutagenic call (Test System: E.COLI, Strain/Indicator: WP2UVRA, Metabolic Activation: RAT LIVER S-9, PHENOBARBITAL AND BETA-NAPHTHOFLAVONE, Method: PREINCUBATION) is “inactive; negative”.

In the case of `O[C@@H]1c2ccc3cc4ccccc4cc3c2[C@@H]2OC2[C@@H]1O` (some centres not stated), the mutagenic call (Test System: CHINESE HAMSTER V-79, Strain/Indicator: V-79/8-AZAGUANINE, Metabolic Activation: NONE, Method: STANDARD PLATE) is “active; positive”.

Take `C=C1C(=O)O[C@@H]2C[C@]3(C)[C@@H](CCC(C)=O)[C@@H]3C[C@H]12`: the mutagenic call is “inactive; negative” (Test System: AMES SALMONELLA TYPHIMURIUM, Strain/Indicator: TA104, Metabolic Activation: NONE, Method: STANDARD PLATE) and “inactive; negative” (Test System: AMES SALMONELLA TYPHIMURIUM, Strain/Indicator: TA104, Metabolic Activation: RAT, LIVER, S-9, Method: STANDARD PLATE).

Consider `CCN=[N+](C)[O-]`, for which the mutagenic call is, setting by setting: (Test System: AMES SALMONELLA TYPHIMURIUM, Strain/Indicator: TA1535, Metabolic Activation: HAMSTER, LIVER, S-9, AROCLOR 1254, Method: PREINCUBATION) “inactive; negative”; under setting [3], “inactive; negative”; (Test System: AMES SALMONELLA TYPHIMURIUM, Strain/Indicator: TA1535, Metabolic Activation: RAT, LIVER, S-9, AROCLOR 1254, Method: PREINCUBATION) “inactive; negative”.
